Reference: ChEMBL document CHEMBL1201862, “PubChem BioAssay data set” (2004)
The source made the active and inactive calls.

Key:
[1] = molecular target: DNA dC->dU-editing enzyme APOBEC-3G (Homo sapiens, UniProt Q9HC16); assay: Dose Response confirmation of small molecule APOBEC3G DNA Deaminase Inhibitors via a fluorescence-based single-stranded DNA deaminase assay. [Related pubchem assays (depositor defined):AID493012, AID493028]; format: functional
[2] = molecular target: DNA dC->dU-editing enzyme APOBEC-3A (Homo sapiens, UniProt P31941); assay: A3A deaminase inhibition for selectivity – biochemical, dose response (AID 504722); format: functional
Chain of DNA dC->dU-editing enzyme APOBEC-3A (P31941 whole entry): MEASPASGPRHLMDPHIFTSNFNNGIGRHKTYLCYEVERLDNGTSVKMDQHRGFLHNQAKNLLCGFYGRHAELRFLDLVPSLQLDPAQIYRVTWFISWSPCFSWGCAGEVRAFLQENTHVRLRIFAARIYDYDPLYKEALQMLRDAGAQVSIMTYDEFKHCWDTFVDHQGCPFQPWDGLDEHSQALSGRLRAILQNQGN

[3] = molecular target: G-protein coupled receptor 55 (Homo sapiens, UniProt Q9Y2T6); assay: selective activators of receptor GPR55 – imaging, U2OS cells, beta-arrestin-GFP redistribution, primary screen (AID 1961); format: functional
Chain of G-protein coupled receptor 55 (Q9Y2T6 whole entry): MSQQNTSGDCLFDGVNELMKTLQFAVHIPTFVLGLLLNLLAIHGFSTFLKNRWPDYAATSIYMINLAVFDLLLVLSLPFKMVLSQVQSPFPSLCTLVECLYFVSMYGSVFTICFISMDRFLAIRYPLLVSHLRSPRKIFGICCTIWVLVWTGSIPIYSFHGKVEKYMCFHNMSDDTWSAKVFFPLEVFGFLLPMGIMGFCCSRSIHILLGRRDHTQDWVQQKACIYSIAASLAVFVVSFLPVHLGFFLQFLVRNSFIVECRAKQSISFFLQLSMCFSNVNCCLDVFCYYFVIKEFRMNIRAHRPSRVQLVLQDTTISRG

Beta-galactosidase = Beta-galactosidase (Escherichia coli, UniProt Q8VNN2); assay: detection-enzyme interference by beta-gal modulators – biochemical, E. coli enzyme, set 3, artefact control for CCR6 antagonist project, dose response (AID 504712); format: functional
Streptokinase A = molecular target: T1, Streptokinase A (Streptococcus pyogenes serotype M1, UniProt P10520); assay: viability-normalized secreted streptokinase activity reduction – plasminogen activation absorbance, OD405, dose response (AID 1914); format: functional, Streptococcus pyogenes M1 GAS;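 further: secreted streptokinase activity via plasminogen activation per viability signal from cell pellet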
T1 sequence (P10520 whole entry): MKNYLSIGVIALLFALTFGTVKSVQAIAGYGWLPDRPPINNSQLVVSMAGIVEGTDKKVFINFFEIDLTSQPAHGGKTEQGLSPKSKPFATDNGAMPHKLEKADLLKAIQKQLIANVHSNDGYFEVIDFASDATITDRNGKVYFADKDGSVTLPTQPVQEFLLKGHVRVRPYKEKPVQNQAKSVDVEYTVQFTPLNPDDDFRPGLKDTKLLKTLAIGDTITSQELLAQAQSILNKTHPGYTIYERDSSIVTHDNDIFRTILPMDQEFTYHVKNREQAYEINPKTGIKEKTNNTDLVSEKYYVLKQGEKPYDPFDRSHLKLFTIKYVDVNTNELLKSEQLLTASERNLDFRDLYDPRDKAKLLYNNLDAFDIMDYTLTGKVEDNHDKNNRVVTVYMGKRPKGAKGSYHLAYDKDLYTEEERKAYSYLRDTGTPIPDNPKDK

[4] = test system: Streptococcus sp. 'group A'; assay: Streptococcus pyogenes SK(-)GAS viability under kanamycin – luminescence, BacTiterGlo, confirmation, counter-screen for streptokinase expression inhibitor project, dose response (AID 1900); format: functional, organism-based
Streptococcus = assay: GAS UMAA2166 growth inhibition – luminescence, BacTiterGlo, counter-screen for streptokinase expression inhibitor project, dose response (AID 1915); format: functional, organism-based;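 further: potency for reduction of bacterial viability or growth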
HEK293 [5] = assay: cells; format: functional, cell-based; details: Homo sapiens
[6] = molecular target: T2, Replicative DNA helicase DnaB (Mycobacterium tuberculosis, UniProt P9WMR3); assay: DnaB intein splicing inhibitors, dose response, biochemical, cell-free fluorescence (AID 449749); format: functional
T2 sequence (P9WMR3 whole entry): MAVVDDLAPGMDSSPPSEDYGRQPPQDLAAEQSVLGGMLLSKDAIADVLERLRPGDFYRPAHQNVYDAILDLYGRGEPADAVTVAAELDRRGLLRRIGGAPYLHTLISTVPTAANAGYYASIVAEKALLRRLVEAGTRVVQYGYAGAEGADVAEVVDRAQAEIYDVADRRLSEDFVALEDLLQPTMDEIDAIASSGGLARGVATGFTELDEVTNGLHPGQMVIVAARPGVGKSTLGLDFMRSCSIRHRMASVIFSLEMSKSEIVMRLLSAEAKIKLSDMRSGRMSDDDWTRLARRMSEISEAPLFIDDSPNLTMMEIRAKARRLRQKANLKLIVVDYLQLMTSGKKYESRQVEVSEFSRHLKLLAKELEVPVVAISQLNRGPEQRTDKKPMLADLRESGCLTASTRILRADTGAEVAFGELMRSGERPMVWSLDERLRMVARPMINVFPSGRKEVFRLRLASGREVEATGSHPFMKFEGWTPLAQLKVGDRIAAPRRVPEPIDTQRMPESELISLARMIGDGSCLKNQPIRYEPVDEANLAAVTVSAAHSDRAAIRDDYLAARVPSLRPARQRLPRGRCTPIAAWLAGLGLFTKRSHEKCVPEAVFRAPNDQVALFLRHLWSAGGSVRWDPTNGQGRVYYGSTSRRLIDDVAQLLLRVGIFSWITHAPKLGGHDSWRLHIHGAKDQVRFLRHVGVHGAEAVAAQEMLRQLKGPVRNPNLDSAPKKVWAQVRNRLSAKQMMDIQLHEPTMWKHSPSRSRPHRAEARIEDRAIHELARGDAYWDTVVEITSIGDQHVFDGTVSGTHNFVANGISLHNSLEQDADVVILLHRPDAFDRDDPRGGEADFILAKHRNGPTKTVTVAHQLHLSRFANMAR

HEK293 [7] = assay: NOD2 signaling inhibitors in MDP-stimulated cells, cell-based, uHTS, luminescence (AID 2001); format: functional; details: Homo sapiens
BJ [8] = assay: BJ-TERT-LT-ST fibroblast viability loss – cell-based, RAS-independent, luminescence, dose response (AID 1935); format: functional; details: Homo sapiens;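 further: BJ fibroblasts immortalized with TERT plus LT and ST oncogenes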
HEK293 [9] = assay: cells; format: functional, cell-based; details: Homo sapiens; remark: listed apart in the source
[10] = molecular target: Nucleotide-binding oligomerization domain-containing protein 2 (Homo sapiens, UniProt Q9HC29); assay: inhibition of NOD2-driven NF-kB reporter – cell-based, luminescence, uHTS, HEK293 (AID 1566); format: functional
Chain of Nucleotide-binding oligomerization domain-containing protein 2 (Q9HC29 whole entry, the tested form may be a part): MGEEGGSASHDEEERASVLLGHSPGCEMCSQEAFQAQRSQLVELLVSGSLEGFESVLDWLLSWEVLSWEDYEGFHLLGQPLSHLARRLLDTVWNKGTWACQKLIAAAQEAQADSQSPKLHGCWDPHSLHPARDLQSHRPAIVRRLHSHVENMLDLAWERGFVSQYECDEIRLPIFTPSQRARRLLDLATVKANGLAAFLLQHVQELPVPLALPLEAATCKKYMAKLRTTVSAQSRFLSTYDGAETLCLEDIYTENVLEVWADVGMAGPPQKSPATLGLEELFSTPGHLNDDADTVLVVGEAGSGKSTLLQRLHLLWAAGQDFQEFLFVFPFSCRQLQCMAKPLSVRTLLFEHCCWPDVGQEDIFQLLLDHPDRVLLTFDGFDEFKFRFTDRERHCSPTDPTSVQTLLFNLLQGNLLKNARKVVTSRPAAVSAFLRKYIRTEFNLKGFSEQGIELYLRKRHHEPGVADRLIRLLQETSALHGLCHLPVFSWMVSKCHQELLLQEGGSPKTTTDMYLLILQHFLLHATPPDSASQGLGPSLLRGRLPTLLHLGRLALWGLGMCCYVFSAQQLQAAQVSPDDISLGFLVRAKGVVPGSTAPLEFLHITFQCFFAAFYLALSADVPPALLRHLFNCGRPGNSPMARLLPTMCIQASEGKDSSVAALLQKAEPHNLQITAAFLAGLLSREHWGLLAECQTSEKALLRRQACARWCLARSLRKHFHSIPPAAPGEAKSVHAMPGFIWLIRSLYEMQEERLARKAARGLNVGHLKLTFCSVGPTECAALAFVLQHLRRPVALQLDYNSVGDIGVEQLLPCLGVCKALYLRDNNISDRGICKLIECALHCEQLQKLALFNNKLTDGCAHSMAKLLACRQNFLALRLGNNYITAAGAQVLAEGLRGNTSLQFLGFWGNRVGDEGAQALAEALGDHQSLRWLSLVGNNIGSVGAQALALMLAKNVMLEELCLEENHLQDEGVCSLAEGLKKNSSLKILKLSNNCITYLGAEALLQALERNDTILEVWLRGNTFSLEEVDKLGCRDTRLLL

[11] = molecular target: T3, Microphthalmia-associated transcription factor (Homo sapiens, UniProt O75030); assay: reducers of TRPM1 reporter luminescence, concentration series – cell-based, SK-MEL-5, cherry-picked, set 3, MITF inhibitor project, dose response (AID 493073); format: functional;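 further: SK-MEL-5 melanoma cells with luciferase driven by the MITF target TRPM1 promoter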
T3 sequence (O75030 whole entry): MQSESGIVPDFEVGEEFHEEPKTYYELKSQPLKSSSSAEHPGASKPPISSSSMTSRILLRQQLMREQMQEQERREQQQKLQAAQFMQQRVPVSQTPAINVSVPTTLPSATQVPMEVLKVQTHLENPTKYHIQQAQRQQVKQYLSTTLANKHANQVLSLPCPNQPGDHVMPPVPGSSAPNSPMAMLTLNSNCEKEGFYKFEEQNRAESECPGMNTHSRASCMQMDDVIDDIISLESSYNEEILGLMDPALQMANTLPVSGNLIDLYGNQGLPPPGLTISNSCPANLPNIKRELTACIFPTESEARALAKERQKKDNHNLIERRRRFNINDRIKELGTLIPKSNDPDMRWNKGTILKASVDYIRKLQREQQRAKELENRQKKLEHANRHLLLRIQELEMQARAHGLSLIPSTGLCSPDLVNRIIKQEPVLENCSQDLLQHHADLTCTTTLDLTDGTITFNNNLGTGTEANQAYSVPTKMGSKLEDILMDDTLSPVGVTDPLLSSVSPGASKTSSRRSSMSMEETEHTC

HEK293 [12] = assay: inhibition of NOD1-driven NF-kB reporter – cell-based, luminescence, uHTS, primary screen (AID 1578); format: functional; details: Homo sapiens
[13] = DRD fibroblast viability loss – cell-based, non-viral oncogenic, luminescence, dose response (AID 1934); format: functional; details: Homo sapiens
BJ [14] = assay: BJ-TERT fibroblast viability loss – cell-based, RAS-independent, luminescence, dose response (AID 1933); format: functional; details: Homo sapiens
Protein RecA = molecular target: T4, Protein RecA (Mycobacterium tuberculosis, UniProt P9WHJ3); assay: Fluorescence Cell-Free Homogeneous Dose Retest to Identify Inhibitors of RecA-Intein Splicing Activity. [Related pubchem assays (depositor defined):AID2097, AID2223, AID489010, AID492950]; format: functional
T4 sequence (P9WHJ3 whole entry): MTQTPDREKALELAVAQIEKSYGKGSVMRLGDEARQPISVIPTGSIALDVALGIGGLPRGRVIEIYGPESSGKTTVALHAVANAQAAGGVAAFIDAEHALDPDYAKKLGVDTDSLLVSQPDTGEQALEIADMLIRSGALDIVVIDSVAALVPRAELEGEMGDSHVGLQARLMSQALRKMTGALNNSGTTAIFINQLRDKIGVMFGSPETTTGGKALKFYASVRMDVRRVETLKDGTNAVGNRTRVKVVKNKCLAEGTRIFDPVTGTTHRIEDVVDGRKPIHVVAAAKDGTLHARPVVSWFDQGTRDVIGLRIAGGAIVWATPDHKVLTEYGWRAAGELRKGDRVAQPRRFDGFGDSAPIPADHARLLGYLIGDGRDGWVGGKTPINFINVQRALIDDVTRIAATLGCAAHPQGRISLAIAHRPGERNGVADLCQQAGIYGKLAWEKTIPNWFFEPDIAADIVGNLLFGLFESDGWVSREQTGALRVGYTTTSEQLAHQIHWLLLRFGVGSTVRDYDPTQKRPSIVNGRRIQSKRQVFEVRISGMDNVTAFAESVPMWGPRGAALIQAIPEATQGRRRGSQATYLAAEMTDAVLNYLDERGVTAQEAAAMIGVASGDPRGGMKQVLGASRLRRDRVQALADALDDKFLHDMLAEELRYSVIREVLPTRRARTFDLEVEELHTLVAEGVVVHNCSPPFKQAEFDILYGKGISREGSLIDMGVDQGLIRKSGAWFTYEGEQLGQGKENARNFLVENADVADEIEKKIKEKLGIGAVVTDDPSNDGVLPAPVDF

HEK293 [15] = assay: cells; format: functional, cell-based; details: Homo sapiens; remark: listed apart in the source
BJ [16] = assay: cells; format: functional, cell-based; details: Homo sapiens
[17] = molecular target: Glyceraldehyde-3-phosphate dehydrogenase (Homo sapiens, UniProt P04406)
Chain of Glyceraldehyde-3-phosphate dehydrogenase (P04406 whole entry): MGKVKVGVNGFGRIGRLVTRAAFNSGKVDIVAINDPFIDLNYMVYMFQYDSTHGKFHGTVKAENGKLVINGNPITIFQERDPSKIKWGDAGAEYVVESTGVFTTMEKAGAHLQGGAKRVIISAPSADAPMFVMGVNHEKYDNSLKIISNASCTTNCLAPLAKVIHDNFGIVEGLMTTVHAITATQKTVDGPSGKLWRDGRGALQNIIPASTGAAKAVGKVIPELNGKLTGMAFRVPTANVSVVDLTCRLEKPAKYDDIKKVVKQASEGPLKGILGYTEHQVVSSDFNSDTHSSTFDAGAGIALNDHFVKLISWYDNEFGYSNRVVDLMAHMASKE

[18] = molecular target: T5, Alkaline phosphatase, tissue-nonspecific isozyme (Homo sapiens, UniProt P05186); assay: potency against alkaline phosphatase TNAP – biochemical, luminescent, dose response, SAR follow-up (AID 1056)
T5 sequence (P05186 whole entry): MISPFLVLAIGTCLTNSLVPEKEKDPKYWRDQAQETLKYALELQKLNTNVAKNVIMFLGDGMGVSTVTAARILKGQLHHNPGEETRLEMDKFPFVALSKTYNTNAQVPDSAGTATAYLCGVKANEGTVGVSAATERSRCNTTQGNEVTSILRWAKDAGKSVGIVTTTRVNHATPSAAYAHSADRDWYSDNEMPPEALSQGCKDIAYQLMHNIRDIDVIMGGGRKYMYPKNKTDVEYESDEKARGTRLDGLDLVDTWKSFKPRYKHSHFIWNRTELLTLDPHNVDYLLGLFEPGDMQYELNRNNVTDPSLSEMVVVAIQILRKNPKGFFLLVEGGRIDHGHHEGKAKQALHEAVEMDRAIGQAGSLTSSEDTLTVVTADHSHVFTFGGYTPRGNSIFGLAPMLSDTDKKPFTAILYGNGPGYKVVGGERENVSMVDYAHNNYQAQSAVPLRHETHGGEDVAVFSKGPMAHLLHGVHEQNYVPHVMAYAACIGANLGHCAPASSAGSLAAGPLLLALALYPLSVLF

[19] = molecular target: Induced myeloid leukemia cell differentiation protein Mcl-1 (Homo sapiens, UniProt Q07820); format: functional
Chain of Induced myeloid leukemia cell differentiation protein Mcl-1 (Q07820 whole entry): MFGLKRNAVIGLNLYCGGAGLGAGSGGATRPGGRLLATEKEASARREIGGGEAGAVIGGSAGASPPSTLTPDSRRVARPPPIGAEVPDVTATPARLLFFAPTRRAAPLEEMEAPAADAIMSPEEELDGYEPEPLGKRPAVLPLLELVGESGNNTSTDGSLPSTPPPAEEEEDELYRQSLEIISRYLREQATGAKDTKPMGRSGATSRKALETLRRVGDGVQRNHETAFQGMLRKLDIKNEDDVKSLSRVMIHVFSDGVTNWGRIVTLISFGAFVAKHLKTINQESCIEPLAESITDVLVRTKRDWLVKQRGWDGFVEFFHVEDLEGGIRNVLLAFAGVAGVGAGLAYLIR

Genome polyprotein = Genome polyprotein (dengue virus type 2, UniProt P29990); assay: flavivirus cap methylation enzyme inhibition – biochemical, confirmation dose response, primary screen (AID 588689); format: functional
Chain of Genome polyprotein (P29990 2492-3391 limits assumed): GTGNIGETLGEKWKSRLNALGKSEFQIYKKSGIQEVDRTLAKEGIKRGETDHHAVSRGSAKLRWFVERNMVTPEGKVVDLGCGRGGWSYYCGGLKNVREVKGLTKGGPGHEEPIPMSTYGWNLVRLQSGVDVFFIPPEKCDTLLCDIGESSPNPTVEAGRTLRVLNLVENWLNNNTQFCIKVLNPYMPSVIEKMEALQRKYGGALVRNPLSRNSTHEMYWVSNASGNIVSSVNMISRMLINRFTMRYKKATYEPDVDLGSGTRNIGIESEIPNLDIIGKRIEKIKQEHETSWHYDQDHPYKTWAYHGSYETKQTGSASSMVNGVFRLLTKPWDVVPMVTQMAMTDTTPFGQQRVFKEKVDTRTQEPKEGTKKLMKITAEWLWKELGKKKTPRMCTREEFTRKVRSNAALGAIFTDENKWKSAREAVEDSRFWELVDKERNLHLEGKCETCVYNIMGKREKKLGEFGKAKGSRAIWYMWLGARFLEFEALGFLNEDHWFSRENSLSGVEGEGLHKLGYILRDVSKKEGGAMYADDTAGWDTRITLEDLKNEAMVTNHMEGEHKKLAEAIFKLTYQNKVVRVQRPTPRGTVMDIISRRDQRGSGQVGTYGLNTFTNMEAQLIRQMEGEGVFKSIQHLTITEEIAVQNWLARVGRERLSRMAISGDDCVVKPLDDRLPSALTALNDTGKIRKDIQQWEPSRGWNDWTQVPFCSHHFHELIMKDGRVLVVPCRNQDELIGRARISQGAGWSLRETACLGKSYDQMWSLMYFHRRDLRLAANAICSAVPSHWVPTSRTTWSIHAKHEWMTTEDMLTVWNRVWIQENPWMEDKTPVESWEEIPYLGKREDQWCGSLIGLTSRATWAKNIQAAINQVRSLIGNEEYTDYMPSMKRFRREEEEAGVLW

SUMO-activating enzyme [20] = molecular target: T6, SUMO-activating enzyme (Homo sapiens, UniProt Q9UBT2); assay: blockers of UBC9-mediated SUMO conjugation – biochemical, AlphaScreen, SUMOylation inhibitor project, confirmation (AID 2018); format: functional
T6 sequence (Q9UBE0 whole entry): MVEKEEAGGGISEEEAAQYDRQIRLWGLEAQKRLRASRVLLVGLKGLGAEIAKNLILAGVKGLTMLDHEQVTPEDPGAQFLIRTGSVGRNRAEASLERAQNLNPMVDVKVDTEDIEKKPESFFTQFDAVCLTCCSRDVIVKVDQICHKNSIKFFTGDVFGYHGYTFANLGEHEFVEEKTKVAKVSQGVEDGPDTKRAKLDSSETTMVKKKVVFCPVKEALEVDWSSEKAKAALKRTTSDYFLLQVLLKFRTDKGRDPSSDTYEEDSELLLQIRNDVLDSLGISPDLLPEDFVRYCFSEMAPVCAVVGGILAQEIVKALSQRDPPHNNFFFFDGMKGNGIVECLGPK
T6 sequence (Q9UBT2 whole entry): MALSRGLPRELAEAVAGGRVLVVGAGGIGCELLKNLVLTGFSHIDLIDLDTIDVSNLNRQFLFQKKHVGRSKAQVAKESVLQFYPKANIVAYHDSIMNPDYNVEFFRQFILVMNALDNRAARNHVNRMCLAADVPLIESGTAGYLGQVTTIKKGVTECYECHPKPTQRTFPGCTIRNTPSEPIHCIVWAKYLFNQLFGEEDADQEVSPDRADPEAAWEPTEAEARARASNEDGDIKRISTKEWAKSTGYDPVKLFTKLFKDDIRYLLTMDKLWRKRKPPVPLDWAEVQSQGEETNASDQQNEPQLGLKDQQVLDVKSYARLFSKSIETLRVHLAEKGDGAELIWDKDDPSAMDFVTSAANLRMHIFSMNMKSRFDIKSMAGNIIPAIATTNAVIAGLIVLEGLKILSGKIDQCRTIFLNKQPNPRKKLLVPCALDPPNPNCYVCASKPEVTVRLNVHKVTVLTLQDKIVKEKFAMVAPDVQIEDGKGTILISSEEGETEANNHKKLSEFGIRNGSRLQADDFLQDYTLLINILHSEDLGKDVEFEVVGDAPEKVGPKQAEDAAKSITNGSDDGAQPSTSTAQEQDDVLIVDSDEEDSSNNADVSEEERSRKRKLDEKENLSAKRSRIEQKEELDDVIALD

SUMO-activating enzyme [21] = molecular target: T6, SUMO-activating enzyme; assay: blockers of SAE1/SAE2–UBC9 SUMO transfer – biochemical, HTRF, uHTS, primary screen (AID 2006); format: protein-complex assay

Chain of DNA dC->dU-editing enzyme APOBEC-3G (Q9HC16 whole entry): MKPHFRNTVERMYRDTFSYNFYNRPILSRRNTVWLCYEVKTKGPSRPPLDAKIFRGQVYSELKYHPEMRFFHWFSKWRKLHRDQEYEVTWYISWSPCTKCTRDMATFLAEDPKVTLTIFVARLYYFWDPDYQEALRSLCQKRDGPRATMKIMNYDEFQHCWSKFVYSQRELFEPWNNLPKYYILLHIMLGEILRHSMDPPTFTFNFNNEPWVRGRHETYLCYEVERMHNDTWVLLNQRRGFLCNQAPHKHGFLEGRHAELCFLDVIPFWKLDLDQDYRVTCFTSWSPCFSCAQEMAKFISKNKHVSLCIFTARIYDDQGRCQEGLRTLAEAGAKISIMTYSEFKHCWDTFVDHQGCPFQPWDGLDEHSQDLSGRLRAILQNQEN

Sc1nc2cc(Br)c[nH]c-2n1
IC50 [1]: 2.94 µM (active) | IC50 [2]: > 100 µM (inactive)

Cc1ccc(SC[C@H](Cc2ccccc2)N2CC[C@@H](NC(=O)OCc3ccccc3)CCC2=O)cc1
EC50 [3]: 1.42 µM (active)

COc1cccc(C(=O)NC(=S)N2CCN(c3ccc(C(F)(F)F)cc3[N+](=O)[O-])CC2)c1
IC50 (Beta-galactosidase): > 66.6 µM (inactive) | EC50 (Streptokinase A): > 150 µM (not active) | EC50 [4]: > 150 µM (not active) | EC50 (Streptococcus): > 150 µM (not active)

O=C(CCl)Nc1cccc(S(=O)(=O)N2CCCCCC2)c1
IC50 (HEK293 [5]): 4.83 µM (active) | AC50 [6]: 23.5 µM (active) | IC50 (HEK293 [7]): 8.19 µM (active) | EC50 (BJ [8]): 10.7 µM (active) | IC50 (HEK293 [9]): > 20 µM (inactive) | EC50 [10]: 19.6 µM (active) | AC50 [11]: 11.8 µM (active) | EC50 (HEK293 [12]): 10.1 µM (active) | EC50 [13]: 9.38 µM (active) | EC50 (BJ [14]): 4.64 µM (inconclusive) | EC50 (Protein RecA): 22.6 µM (active) | IC50 (HEK293 [15]): > 20 µM (inactive) | EC50 (BJ [16]): 22 µM (active)

CC(C)CCn1c(Sc2nc3ccccc3o2)nc2c1c(=O)[nH]c(=O)n2C
IC50 (HEK293 [5]): 7.89 µM (active) | AC50 [6]: > 380 µM (inconclusive) | IC50 (HEK293 [7]): 5.79 µM (active) | EC50 (HEK293 [12]): > 20 µM (inactive) | EC50 (Protein RecA): 4.76 µM (active) | IC50 (HEK293 [15]): > 20 µM (inactive)

COc1ccc(C(C)C)cc1S(=O)(=O)Nc1cccnc1
IC50 [17]: > 100 µM (not active) | IC50 [18]: > 100 µM (inactive)

COCCN(Cc1ccccc1)C(=O)c1cc(-c2ccc(OC)c(OC)c2)nc2ccccc12
IC50 (HEK293 [5]): > 20 µM (inactive) | IC50 (HEK293 [7]): > 20 µM (inactive) | IC50 (HEK293 [9]): 16.3 µM (active) | EC50 [10]: > 20 µM (inactive) | EC50 (HEK293 [12]): > 20 µM (inactive) | IC50 (HEK293 [15]): > 20 µM (inactive)

COc1cccc(Cn2cc(-c3cccc(C(F)(F)F)c3)nn2)c1
EC50 [3]: 9.1 µM (active)

Cc1[nH]n(-c2ncc(-c3ccccc3)s2)c(=O)c1C(c1ccc(Cl)cc1)C(C#N)C#N (centres undefined)
IC50 [19]: 8.69 µM (active) | IC50 (Genome polyprotein): 31.9 µM (active) | IC50 (SUMO-activating enzyme [20]): 7.91 µM (active) | IC50 (SUMO-activating enzyme [21]): 28.8 µM (active)
